Data: US5834279A (priority 1997, dated 1998)
Like-named read-outs stand apart in the source and are kept apart here.

What was measured:
[1] = molecular target: T1, M. tuberculosis ribonucleotide reductase (Mycobacterium tuberculosis, UniProt P9WH75); test: biochemical; type: biochemical; details: for Maximal stimulated ribonucleotide reduction (Example 2): Example 2, written in present tense; for Maximal stimulated CDP reduction: equimolar R1 and R2, DTT as reductant
Target sequence in this assay (P9WH75 3-725): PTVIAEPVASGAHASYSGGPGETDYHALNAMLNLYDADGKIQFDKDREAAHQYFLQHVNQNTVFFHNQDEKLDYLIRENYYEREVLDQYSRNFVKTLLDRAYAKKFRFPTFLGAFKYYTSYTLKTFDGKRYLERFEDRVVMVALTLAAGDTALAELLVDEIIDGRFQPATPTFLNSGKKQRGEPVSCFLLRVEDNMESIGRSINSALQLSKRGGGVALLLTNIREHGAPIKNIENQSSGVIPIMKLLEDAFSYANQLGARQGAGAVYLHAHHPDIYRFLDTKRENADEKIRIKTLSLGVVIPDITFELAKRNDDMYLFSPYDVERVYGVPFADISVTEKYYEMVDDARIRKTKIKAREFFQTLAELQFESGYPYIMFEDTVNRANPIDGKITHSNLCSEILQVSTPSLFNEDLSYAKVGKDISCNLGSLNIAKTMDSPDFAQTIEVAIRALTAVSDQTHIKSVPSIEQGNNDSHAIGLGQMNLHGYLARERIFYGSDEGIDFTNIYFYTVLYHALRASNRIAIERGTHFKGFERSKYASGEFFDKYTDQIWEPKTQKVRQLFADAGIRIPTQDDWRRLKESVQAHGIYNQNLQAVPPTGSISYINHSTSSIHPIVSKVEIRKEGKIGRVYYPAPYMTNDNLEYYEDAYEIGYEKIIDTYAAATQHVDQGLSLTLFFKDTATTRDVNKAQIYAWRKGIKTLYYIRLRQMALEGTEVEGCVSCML

[2] = molecular target: M. tuberculosis topoisomerase I (Mycobacterium tuberculosis, UniProt P9WG49); type: biochemical; details: 150 ng enzyme, 1.0 mM MgCl2
M. tuberculosis topoisomerase I, sequence (P9WG49 2-896, added parts left off): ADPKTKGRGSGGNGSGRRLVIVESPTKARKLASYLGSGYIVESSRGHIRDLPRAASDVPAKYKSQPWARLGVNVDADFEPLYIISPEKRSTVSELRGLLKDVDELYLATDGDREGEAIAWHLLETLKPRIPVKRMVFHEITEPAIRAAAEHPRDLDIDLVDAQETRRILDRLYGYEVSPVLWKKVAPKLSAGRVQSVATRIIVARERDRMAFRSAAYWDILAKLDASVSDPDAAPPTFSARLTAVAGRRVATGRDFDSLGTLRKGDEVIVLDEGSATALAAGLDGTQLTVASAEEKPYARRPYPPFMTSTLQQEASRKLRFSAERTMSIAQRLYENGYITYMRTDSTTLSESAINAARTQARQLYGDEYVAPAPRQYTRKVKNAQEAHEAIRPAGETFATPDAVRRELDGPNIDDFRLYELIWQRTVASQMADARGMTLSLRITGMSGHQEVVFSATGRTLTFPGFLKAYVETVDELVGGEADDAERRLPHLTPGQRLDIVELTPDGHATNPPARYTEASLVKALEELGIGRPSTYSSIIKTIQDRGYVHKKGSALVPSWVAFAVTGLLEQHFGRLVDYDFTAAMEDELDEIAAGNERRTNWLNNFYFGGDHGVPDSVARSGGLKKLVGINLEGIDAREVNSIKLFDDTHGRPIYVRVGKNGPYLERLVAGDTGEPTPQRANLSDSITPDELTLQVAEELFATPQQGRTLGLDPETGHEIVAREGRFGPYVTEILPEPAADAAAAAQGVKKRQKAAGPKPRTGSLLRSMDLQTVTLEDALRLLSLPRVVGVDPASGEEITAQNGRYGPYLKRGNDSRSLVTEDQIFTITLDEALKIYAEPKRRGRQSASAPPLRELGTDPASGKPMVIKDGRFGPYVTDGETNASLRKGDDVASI

[3] = molecular target: T1, M. tuberculosis ribonucleotide reductase; type: biochemical
Target sequence in this assay (P9WH75 whole entry, looked up): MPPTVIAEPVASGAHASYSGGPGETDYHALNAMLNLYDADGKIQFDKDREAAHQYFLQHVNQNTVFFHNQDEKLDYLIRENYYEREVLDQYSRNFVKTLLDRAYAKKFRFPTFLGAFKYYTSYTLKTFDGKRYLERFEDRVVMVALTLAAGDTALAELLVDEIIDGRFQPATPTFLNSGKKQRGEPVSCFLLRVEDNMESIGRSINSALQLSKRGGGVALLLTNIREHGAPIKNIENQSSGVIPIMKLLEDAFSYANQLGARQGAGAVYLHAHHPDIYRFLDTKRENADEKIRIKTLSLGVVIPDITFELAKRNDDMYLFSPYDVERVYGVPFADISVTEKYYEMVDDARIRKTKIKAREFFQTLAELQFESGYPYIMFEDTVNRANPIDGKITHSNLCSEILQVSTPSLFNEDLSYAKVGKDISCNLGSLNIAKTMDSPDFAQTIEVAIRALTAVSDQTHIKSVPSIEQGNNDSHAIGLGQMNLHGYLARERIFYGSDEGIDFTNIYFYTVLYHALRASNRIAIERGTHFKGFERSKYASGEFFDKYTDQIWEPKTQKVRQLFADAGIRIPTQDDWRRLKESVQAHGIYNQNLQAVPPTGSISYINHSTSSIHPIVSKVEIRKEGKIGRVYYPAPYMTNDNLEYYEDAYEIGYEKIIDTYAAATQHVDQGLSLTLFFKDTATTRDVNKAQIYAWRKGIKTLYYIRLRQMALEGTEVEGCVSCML

[4] = molecular target: M. tuberculosis ribonucleotide reductase R1 (Mycobacterium tuberculosis, UniProt P9WH75); type: binding; details: 5 mM ATP
M. tuberculosis ribonucleotide reductase R1, sequence (P9WH75 3-725 limits assumed): as the sequence (P9WH75 3-725) above

[5] = molecular target: T2, mammalian enzyme (ribonucleotide reductase) (Homo sapiens, UniProt P23921); details: cited from earlier work
T2 sequence (P23921 1-792): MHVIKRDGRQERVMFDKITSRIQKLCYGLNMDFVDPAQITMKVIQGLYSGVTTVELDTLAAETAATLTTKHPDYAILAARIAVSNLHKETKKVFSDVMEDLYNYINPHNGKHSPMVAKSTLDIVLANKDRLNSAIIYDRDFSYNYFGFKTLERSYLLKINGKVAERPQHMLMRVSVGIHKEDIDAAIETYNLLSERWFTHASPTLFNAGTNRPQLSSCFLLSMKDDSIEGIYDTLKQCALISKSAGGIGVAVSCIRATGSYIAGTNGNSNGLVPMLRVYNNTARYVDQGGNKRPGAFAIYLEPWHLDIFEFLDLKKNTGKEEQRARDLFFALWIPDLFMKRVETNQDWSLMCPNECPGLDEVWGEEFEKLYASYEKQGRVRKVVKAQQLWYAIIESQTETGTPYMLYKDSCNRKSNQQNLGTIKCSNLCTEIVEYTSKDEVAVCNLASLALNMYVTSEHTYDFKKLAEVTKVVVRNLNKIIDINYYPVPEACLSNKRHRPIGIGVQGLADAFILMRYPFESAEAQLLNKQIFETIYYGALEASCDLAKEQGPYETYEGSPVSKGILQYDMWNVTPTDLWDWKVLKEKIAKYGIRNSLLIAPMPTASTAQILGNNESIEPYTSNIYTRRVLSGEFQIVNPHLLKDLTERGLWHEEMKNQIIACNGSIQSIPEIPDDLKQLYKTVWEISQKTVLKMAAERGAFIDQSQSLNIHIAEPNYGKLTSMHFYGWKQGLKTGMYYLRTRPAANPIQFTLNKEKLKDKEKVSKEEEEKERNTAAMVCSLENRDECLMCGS

[6] = molecular target: T3, nrdE/nrdF ribonucleotide reductase (Salmonella typhimurium, UniProt Q08698); details: cited from earlier work
T3 construct: host or cells: recombinant expression plasmid system (as reported)

[7] = molecular target: nrdA/nrdB ribonucleotide reductase (Escherichia coli, UniProt P00452); details: negative effector at higher concentrations; cited from earlier work
nrdA/nrdB ribonucleotide reductase, sequence (P69924 2-376): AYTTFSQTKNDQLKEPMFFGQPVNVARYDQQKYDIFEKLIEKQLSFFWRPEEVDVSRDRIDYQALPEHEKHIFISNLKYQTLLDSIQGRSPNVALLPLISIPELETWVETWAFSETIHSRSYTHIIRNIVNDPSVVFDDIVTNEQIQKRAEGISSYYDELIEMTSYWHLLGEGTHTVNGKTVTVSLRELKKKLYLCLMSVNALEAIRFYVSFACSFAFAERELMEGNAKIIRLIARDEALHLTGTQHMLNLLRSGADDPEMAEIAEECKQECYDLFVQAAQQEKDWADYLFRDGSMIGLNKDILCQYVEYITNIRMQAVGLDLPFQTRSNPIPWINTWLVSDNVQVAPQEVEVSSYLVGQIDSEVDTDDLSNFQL
nrdA/nrdB ribonucleotide reductase, sequence (P00452 whole entry): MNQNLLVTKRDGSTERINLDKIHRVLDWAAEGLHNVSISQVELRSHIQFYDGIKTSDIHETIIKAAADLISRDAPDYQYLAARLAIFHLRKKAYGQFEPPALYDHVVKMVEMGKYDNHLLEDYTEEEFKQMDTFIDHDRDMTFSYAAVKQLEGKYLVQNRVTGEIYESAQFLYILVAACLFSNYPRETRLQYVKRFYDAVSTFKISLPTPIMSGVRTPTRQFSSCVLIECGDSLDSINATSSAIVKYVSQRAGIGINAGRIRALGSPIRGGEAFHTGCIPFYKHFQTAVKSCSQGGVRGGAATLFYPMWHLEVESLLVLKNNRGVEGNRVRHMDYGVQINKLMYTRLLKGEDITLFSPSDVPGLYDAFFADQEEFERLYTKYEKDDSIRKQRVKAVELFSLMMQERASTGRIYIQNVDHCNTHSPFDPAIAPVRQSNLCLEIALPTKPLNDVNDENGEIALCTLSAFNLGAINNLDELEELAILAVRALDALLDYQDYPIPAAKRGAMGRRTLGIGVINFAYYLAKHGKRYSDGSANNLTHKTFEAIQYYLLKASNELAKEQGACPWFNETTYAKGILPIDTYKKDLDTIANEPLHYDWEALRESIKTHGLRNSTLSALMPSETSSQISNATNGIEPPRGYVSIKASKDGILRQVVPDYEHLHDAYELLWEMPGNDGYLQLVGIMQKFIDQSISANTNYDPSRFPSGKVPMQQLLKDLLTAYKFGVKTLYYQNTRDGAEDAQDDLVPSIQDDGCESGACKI

[8] = molecular target: T4, calf thymus ribonucleotide reductase (Bos taurus, UniProt E1BI58); details: cited from earlier work
T4 construct: slightly higher than that found for calf thymus; host or cells: calf thymus
T4 sequence (E1BI58 entry or part of it): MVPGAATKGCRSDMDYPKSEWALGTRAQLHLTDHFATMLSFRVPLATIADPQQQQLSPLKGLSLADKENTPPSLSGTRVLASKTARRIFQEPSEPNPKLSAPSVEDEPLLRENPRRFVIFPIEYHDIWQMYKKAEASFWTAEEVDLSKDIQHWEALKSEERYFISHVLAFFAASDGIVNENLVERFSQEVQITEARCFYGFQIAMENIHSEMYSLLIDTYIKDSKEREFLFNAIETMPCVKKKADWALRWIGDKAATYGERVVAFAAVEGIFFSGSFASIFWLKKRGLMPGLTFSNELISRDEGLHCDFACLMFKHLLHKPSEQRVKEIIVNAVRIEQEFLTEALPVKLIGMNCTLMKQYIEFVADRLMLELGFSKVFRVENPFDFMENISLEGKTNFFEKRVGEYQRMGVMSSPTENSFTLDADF

[9] = molecular target: Salmonella ribonucleotide reductase (Salmonella typhimurium, UniProt P17424); details: cited from earlier work
Salmonella ribonucleotide reductase, sequence (P17424 whole entry): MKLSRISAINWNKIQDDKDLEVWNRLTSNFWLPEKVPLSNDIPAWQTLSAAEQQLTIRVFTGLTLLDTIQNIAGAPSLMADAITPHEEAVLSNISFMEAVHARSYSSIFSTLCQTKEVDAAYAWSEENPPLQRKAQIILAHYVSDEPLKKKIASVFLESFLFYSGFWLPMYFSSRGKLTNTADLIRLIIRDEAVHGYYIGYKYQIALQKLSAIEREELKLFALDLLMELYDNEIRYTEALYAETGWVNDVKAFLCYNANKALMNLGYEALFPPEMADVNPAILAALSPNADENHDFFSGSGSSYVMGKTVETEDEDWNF

M. smegmatis = details: 200 μg/ml hydroxyurea; cited from earlier work
[10] = 5 mg reconstituted RR (1:1 R1 to R2-2), 6 mM CDP, 2 mM ATP, 0.0-0.5 mM inhibitor, read-out: IC50, inhibition of CDP reduction activity by C-terminal R2 peptides

Nc1ncnc2c1ncn2[C@@H]1O[C@H](COP(=O)(O)OP(=O)(O)OP(=O)(O)O)[C@@H](O)[C@H]1O [ATP]
Concentration above which the effector inhibited the activity [1]: higher than 2 mM
Optimum concentration of activator for CDP reduction [1]: 1 to 2 mM
Maximal stimulated ribonucleotide reduction (Example 2) [1]: up to 45 pmoles deoxyribonucleotide in 20 min
Maximal stimulated CDP reduction [1]: up to 45 pmoles dCDP in 20 min
Effect of ATP on DNA relaxing activity ([2]; 0.4-1.6 mM ATP): inhibited the reaction
Effect of nucleotide effector on ribonucleotide reductase activity of native enzyme [3]: stimulated
Labeling of the 84,000 Da band by [alpha-32P]dATP [4]: completely inhibited

Nc1ncnc2c1ncn2[C@H]1C[C@H](O)[C@@H](COP(=O)(O)OP(=O)(O)OP(=O)(O)O)O1 [dATP]
Maximal stimulated ribonucleotide reduction (Example 2) [1]: ≤ 13 pmoles deoxyribonucleotide in 20 min
Maximal stimulated CDP reduction [1]: ≤ 13 pmoles dCDP in 20 min
Highest concentration at which the effector still stimulated reduction ([1]; inhibition at higher concentrations): ≤ 1 mM
Effect of nucleotide effector on ribonucleotide reductase activity of native enzyme [3]: inhibited
dATP concentration above which inhibition is seen in the mammalian system [5]: greater than 0.1 mM
Concentration up to which dATP is a positive allosteric activator, nrdE/nrdF system [6]: up to 1 mM
Concentration up to which dATP activates, nrdA/nrdB system [7]: up to 1 uM

NC(=O)NO [hydroxyurea]
IC50 ([1]; read-out: IC50, inhibition of the activity of CDP reduction by hydroxyurea): 2000 µM
IC90 [8]: 1000 µM
IC50 [9]: ~500 µM
Growth of M. smegmatis (M. smegmatis): completely inhibited

NCCCCNCCCN [spermidine]
DNA relaxing activity in the presence of spermidine ([2]; 4.0 mM spermidine): almost completely inhibited

Ac-EDDDWDF-OH [R2P7-2, Acetyl-EDDDWDF-OH]
IC50 [1, 10]: 15 to 20 µM

Ac-TDTDWDF-OH [R2P7-1, Acetyl-TDTDWDF-OH]
IC50 [1, 10]: 100 µM
